According to paper PMC12396291, “DNA-encoded library screening uncovers potent DNMT2 inhibitors targeting a cryptic allosteric binding site” (iScience, 2025):
Each block holds one compound with its values, some of them ahead of it.

Legend:
DNMT2 [1] = biological target: T1, DNMT2 (Homo sapiens, UniProt O14717); assay: Isothermal titration calorimetry (ITC), direct titration; type: binding; conditions: direct titration at 25 °C; n.b. = no enthalpy signal observable
T1 construct: Recombinant human DNMT2 (full-length); His-tag; made in house; host or cells: E. coli
T1 sequence (O14717 1-391): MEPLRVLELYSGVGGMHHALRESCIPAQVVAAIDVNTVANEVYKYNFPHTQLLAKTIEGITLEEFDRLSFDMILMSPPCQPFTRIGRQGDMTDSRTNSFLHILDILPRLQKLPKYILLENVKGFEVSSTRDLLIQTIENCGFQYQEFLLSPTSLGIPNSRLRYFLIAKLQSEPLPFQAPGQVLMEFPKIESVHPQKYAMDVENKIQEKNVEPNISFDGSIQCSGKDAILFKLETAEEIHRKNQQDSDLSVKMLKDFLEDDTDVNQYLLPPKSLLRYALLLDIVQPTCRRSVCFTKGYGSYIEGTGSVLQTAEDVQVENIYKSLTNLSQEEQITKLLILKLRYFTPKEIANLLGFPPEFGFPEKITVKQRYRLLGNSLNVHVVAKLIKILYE
Description: The DNMT2 protein was purified via size exclusion chromatography eluting in isothermal titration calorimetry (ITC) buffer (50 mM sodium phosphate pH 8.0, 300 mM NaCl, 1 mM EDTA, 2 mM β-mercaptoethanol, 0.1% polysorbate-20) and directly used for measurements.[3] All compounds were dissolved in DMSO to a concentration of 5 mM and were then diluted in ITC buffer to a final concentration of 500 μM. DNMT2 was diluted to a final concentration of 50 μM with 10% DMSO to match the ligand stocks' DMSO concentration. For the ITC measurements, a MicroCal PEAQ-ITC Automated workstation (Malvern Panalytical) with a 200 μL Hastelloy cell and an injection syringe volume of 40 μL was used. All experiments were performed in triplicates at 25 °C unless otherwise noted. For each measurement, 19 compound injections (2 μL each) with an injection speed of 0.5 μL/s were added to the reaction cell containing DNMT2. The spacing time between sequential injections was 300 s, and the stirring speed was set to 750 rpm with a reference power of 42 μW. As control experiments, ligands were titrated into ITC buffer. Data analysis and fitting were carried out using the MicroCal PEAQ-ITC Analysis Software 1.21 and plotted in GraphPad Prism 8.0.1.

DNMT2 [2] = biological target: T1, DNMT2; assay: MST displacement assay with fluorescent FTAD probe; type: binding; set-up: Fnorm (MST screening): unit not given here; conditions: for Fnorm (% displ.): FTAD displacement / Fnorm (MST screening): ligand 100 μM, FTAD probe
Description: Screening for ligand binding and evaluation of dose-response affinity profiles was performed via microscale thermophoresis (MST) as described previously.[42] The measurements were conducted with a Nanotemper Technologies Monolith NT.115 device. All samples were measured in Monolith standard capillaries at 25 °C. The acquisition mode was set to “Nano-Blue” with an excitation power of 30% and a medium MST power, while the system was controlled using the software MO.Control (version 1.6.1) and for evaluation MO.Affinity Analysis (version 2.3) was used. The samples contained 2 μM DNMT2, 100 nM FTAD (5-FAM-triazolyl-adenosyl-Dab) probe, and 1.3% DMSO in MST buffer (50 mM HEPES, 150 mM NaCl, 1 mM dithiothreitol (DTT), 0.1% PEG-8000, 0.05% polysorbate-20, pH 7.4).[42] All compounds were employed at a final concentration of 100 μM for the initial ligand screening.

[3] = test system: tRNA modifications (m^5C) in MOLM-13 cells; assay: LC-MS/MS tRNA modification analysis of treated cells; type: cell-based, human; conditions: 72 h; for m^5C reduction in tRNA: relative to DMSO
[4] = Parallel artificial membrane permeation assay (PAMPA); type: in vitro ADME; conditions: 7 h incubation, duplicates
Description: To determine the passive permeability of selected DNMT2 ligands, a parallel artificial membrane permeation assay (PAMPA) was performed as described previously.[68] The experiment was performed in duplicates with Sigma-Aldrich MAIPNTR10 donor plates with 5 μL of an artificial membrane (1% w/v L-α-phosphatidylcholine in n-dodecane) per well. After incubation for 7 h, the acceptor solutions were evaluated by LC/MS (HP Agilent 1100 Series). The peak areas in the UV chromatogram (λ = 210 nm) were used to calculate the areas under the curve (AUCs).

[5] = test system: MOLM-13, Huh-7 and MDA-MB-231 cells; assay: Cell viability assay, pre-cultivation with compound then doxorubicin; type: cell-based, human; conditions: for susceptibility to subsequent doxorubicin treatment (synergy): compound 50 μM, then doxorubicin
Description: Cell viability assays were conducted with MOLM-13 cells, Huh-7, MDA-MB-231, HEK293, and HCT MTase mutant cell lines (WT, knock-down DNMT2, and knock-down NSUN2) to investigate the DNMT2 inhibiting compounds’ cellular effect. Cells were cultured according to standard protocols: MOLM-13 (RPMI, 10% FBS, 1x Penicillin/Streptomycin, 37 °C, 5% CO2), Huh-7/MDA-MB-231/HEK293 (DMEM, 10% FBS, 1x Penicillin/Streptomycin, 37 °C, 5% CO2) and HCT (McCoys’s 5A Medium, 10% FBS, L-Glutamine, 1x Penicillin/Streptomycin, 37 °C, 5% CO2). Cell viability was assessed using Promega Cell Titer Glo assay kit (MOLM-13, Huh-7, MDA-MB-231, HEK293) or Lonza ViaLight Plus Cell Proliferation and Cytotoxicity BioAssay Kit (HCT cell lines). […] Then, the cell titer reagent was added to each well according to the manufacturer’s protocols, and luminescence was measured using a Tecan Spark 10M plate reader (MOLM-13, Huh-7, MDA-MB-231, HEK293) or Molecular Devices FlexStation (HCT cell lines).

DNMT2 [6] = biological target: T1, DNMT2; assay: ^3H-based methyltransferase enzyme activity assay (^3H-SAM incorporation into tRNA^Asp); type: biochemical
Description: Enzymatic DNMT2 inhibition assays were carried out in 100 mM Tris-HCl, pH 8.0, 100 mM NH4OAc, 0.1 mM EDTA, 10 mM MgCl2, and 10 mM DTT as described previously.[3]^,[4] First, the tRNA^Asp substrate was heated to 75 °C for 5 min and cooled down to room temperature (RT) before it was added to the reaction mixture to a final concentration of 5 μM. The reaction mixture contained 250 nM DNMT2 and the ligand compounds at variable concentrations (5% DMSO). Enzymatic reactions were started by the addition of 0.9 μM SAM as a mixture of ^3H-SAM (Hartmann Analytics) resp. cold SAM (NEB) to a final activity of 0.025 μCi μL^−1. Enzyme assays were carried out for 30 min at 37 °C. As a negative control served the reaction mixture without DNMT2 and as a positive control the reaction mixture without test compound. After 30 min, aliquots of 8 μL were taken from the reaction mixture and spotted on Whatman glass microfiber filters (GF/C, 25 mm). The RNA was precipitated on the filters with 5% ice-cold TCA for 15 min. […] Scintillation was measured with a scintillation counter (TriCarb Liquid Scintillation Analyzer 4810 TR; measurement time of 1 min). For IC50-value determination, compounds were analyzed at a minimum of six different concentrations in triplicates. IC50-values were calculated, evaluated, and plotted in GraphPad Prism 8.0.1.

DNMT2 [7] = biological target: T1, DNMT2; assay: Fluorescence polarization (FP) assay with probe 6; type: binding
Description: (§1) Fluorescence polarization (FP) measurements with RNA MTases and small-molecule fluorescent tracers were conducted in black Greiner 96-well half-area plates using a Tecan Spark 10M plate reader as described previously.[44] The reader was equipped with polarization filters coupled to a monochromator setup (λex = 480 nm, λem = 530 nm). For selectivity screening, reaction mixtures contained varying concentrations of recombinant enzyme (DNMT1, DNMT2, DNMT3A/3L, NSUN2, NSUN3, or NSUN6; preparation see below) and 10 nM DEL hit-derived probe 6 in MST buffer. For displacement experiments, 100 μM SAH or 10 μM tRNA^Asp were added from buffered stock solutions to the DNMT2-containing mixtures. All measurements were performed as triplicates. Polarization values (in mP) were calculated from polarization-specific parallel and orthogonal fluorescence intensities according to the Tecan in-built calculation routine. KD-values were calculated and plotted in GraphPad Prism 8.0.1.

DNMT2 [8] = biological target: T1, DNMT2; assay: MST with DEL hit-derived fluorescent tracers 6-8, DNMT2 varied; conditions: probe 100 nM instead of FTAD, read-out: probe binding affinity (MST, apparent KD)
DNMT3A/3L = biological target: T2, DNMT3A/3L (UniProt Q9CWR8+Q9Y6K1); assay: FP selectivity assay with probe 6; type: binding, human; conditions: enzyme concentrations up to 20 μM
T2 construct: made in house; host or cells: E. coli
Description: as §1

NSUN3 = biological target: T3, NSUN3 (Homo sapiens, UniProt Q9H649); assay: FP selectivity assay with probe 6; type: binding; conditions: enzyme concentrations up to 20 μM
T3 construct: made in house
T3 sequence (Q9H649 1-340): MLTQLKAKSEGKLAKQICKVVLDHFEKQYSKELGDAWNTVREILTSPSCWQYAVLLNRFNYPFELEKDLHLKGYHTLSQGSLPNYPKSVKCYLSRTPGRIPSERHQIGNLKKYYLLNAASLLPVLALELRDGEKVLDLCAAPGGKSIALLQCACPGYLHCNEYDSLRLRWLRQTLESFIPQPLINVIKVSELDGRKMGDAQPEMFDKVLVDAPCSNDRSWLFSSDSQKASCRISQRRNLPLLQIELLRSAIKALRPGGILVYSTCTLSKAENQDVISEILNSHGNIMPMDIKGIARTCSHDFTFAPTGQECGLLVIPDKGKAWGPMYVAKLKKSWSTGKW
Description: as §1

NSUN6 = biological target: T4, NSUN6 (Homo sapiens, UniProt Q8TEA1); assay: FP selectivity assay with probe 6; type: binding; conditions: enzyme concentrations up to 20 μM
T4 construct: made in house; host or cells: E. coli
T4 sequence (Q8TEA1 1-469): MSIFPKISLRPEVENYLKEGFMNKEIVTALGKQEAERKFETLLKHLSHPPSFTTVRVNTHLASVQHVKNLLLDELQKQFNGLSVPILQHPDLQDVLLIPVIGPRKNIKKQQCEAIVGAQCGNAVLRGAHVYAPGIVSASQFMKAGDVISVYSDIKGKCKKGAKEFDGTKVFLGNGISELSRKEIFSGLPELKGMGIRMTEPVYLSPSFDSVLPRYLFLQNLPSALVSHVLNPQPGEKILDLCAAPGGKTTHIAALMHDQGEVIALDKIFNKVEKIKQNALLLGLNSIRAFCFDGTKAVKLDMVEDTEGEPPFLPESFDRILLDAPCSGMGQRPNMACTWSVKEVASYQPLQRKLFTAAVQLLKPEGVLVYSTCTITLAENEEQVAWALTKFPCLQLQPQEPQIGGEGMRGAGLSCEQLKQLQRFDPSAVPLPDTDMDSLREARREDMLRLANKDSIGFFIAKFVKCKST
Description: as §1

DNMT1 = biological target: T5, DNMT1 (Homo sapiens, UniProt P26358); assay: FP selectivity assay with probe 6; type: binding; conditions: enzyme concentrations up to 20 μM
T5 construct: purchased ActiveMotif 31404
T5 sequence (P26358 whole entry): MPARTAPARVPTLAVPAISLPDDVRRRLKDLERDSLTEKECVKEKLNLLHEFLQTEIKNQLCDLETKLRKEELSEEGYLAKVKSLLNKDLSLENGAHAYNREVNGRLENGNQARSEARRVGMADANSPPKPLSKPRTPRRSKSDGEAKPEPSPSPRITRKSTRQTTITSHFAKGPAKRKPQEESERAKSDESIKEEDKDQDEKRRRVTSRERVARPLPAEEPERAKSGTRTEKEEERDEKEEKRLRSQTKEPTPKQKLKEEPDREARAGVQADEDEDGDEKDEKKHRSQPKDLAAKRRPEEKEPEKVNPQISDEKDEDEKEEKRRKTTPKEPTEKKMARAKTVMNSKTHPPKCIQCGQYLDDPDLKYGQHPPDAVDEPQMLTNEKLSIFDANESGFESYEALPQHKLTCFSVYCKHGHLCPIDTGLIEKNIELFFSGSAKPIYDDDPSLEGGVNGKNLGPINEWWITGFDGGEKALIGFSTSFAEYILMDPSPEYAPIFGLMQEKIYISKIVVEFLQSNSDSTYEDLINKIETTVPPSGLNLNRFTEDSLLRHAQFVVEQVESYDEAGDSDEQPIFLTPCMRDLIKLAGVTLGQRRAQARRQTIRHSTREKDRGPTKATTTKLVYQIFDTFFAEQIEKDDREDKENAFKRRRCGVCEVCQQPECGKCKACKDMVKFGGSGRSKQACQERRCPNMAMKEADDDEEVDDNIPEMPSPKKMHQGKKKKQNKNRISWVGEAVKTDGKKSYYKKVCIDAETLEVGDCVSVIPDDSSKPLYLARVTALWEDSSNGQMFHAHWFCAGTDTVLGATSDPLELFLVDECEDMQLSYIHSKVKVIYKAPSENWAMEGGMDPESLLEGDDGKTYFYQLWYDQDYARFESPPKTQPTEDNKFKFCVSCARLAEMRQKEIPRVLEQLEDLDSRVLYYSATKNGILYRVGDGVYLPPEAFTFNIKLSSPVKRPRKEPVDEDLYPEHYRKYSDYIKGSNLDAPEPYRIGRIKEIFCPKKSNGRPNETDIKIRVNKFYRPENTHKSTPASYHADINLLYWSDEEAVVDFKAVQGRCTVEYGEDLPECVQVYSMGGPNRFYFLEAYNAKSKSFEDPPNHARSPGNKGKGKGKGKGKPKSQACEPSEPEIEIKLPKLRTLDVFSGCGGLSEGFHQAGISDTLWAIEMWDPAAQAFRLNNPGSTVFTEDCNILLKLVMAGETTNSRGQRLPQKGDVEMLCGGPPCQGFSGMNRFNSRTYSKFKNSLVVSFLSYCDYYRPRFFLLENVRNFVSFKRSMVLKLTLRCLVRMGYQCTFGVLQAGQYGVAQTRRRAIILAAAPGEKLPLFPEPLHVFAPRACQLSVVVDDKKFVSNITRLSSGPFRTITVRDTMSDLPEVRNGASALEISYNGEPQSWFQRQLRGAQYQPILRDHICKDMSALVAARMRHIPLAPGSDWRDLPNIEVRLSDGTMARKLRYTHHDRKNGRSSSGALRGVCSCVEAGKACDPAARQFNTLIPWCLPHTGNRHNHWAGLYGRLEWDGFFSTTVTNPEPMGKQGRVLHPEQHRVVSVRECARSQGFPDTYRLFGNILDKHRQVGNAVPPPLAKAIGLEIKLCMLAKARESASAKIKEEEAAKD
Description: as §1

NSUN2 = biological target: T6, NSUN2 (Homo sapiens, UniProt Q08J23); assay: FP selectivity assay with probe 6; type: binding; conditions: enzyme concentrations up to 20 μM
T6 construct: made in house; host or cells: E. coli
T6 sequence (Q08J23 whole entry): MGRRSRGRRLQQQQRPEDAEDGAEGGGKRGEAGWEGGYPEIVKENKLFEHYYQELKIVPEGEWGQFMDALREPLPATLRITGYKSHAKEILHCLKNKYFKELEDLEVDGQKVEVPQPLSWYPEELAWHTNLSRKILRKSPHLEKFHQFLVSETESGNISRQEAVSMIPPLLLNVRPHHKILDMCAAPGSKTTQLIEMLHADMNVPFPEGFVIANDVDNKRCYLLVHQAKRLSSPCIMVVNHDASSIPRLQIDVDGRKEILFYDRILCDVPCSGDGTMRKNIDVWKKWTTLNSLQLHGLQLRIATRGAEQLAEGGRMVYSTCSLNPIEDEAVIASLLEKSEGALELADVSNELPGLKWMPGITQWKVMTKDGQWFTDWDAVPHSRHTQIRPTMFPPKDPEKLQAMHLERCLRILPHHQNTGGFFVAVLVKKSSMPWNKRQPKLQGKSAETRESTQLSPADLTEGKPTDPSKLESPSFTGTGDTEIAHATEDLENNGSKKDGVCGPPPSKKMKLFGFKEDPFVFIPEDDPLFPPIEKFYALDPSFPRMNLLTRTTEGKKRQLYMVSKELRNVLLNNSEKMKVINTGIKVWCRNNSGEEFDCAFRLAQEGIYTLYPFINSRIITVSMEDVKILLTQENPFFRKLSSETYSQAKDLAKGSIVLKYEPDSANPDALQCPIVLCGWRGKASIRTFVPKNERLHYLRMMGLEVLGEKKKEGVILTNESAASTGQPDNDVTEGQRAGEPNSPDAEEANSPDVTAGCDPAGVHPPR
Description: as §1

ITC (KD) (DNMT2 [1]): n.b.
Fnorm (% displ.): FTAD displacement (DNMT2 [2]): 5%
Fnorm (MST screening) (DNMT2 [2]): 861.5
SMILES: CCc1ccc(C(=O)NCC2(C(=O)N[C@H](Cc3c[nH]c4ccccc34)C(=O)NCC(N)=O)CC2)cc1 [Compound 30]

Papp (PAMPA) [4]: ~ 0.30 10^−6 cm/s
Papp at 7 h ([4]; PAMPA): 0.3 ×10⁻⁶ cm/s
SMILES: CCc1ccc(C(=O)NCC2(C(=O)NC(CC(=O)NCC(N)=O)Cc3ccc(Cl)cc3)CC2)cc1 (stereo not shown) [Compound 16]
change in RNA modifications ([3]; MOLM-13, 5 μM): too low to stimulate any significant change in RNA modifications
changes of other (non-m^5C) tRNA modifications ([3]; MOLM-13, 50 μM): only minor other modification changes were observed
m^5C reduction in tRNA ([3]; MOLM-13, 50 μM): ~25%
cellular viability after cultivation with compound alone ([5]; 50 μM, two passages of three days each): no observable reduction in cellular viability
susceptibility to subsequent doxorubicin treatment (synergy) [5]: made the cells more susceptible to the subsequent treatment with doxorubicin

ITC (KD) (DNMT2 [1]): n.b.
FTAD displacement in the MST assay (DNMT2 [2]; DEL hits, result in words): did not lead to FTAD displacement
Kd (DNMT2 [2]; FTAD probe 100 nM, 2 μM DNMT2, n.b. = no thermophoresis shift observable): 105000 ± 9000 nM
IC50 (DNMT2 [6]): 44400 ± 12900 nM
SMILES: CNC(=O)C(NC(=O)C(Cc1c[nH]c2cc(Cl)ccc12)NC(=O)C(CO)NCC(C)Cc1ccc2c(c1)OCO2)C1CCCCC1 (stereo not shown) [Compound 4]

displacement of probe 6 from DNMT2 (FP) (DNMT2 [7]; SAH 100 μM or tRNA^Asp 10 μM added to DNMT2 2 μM): able to displace probe 6
SMILES: Nc1ncnc2c1ncn2[C@@H]1O[C@H](CSCC[C@H](N)C(=O)O)[C@@H](O)[C@H]1O [SAH, S-adenosylhomocysteine, reference compound]

Kd (DNMT2 [8]): 1360 nM
SMILES: Cc1cccc(N(C)c2nc(N[C@H](C(=O)NCCCCCCNC(=O)CCCCC[N+]3=C(/C=C/C=C/C=C4/N(C)c5ccccc5C4(C)C)C(C)(C)c4ccccc43)[C@@H](C)OC(C)(C)C)nc(N3CCN(c4c(C)cccc4C)CC3)n2)c1 [Compound 7]

Kd (DNMT2 [8]): 1650 nM
fluorescence polarization of probe-DNMT2 complex (DNMT2 [7]; probe 6 with DNMT2 (enzyme-free buffer 5 mP)): 220 mP
probe binding to DNMT3A/3L (FP) (DNMT3A/3L): does not bind
probe binding to NSUN3 (FP) (NSUN3): does not bind
probe binding to NSUN6 (FP) (NSUN6): does not bind
probe binding to DNMT1 (FP) (DNMT1): does not bind
probe binding to NSUN2 (FP) (NSUN2): does not bind
SMILES: CCc1ccc(C(=O)NCC2(C(=O)N[C@H](CC(=O)NCC(=O)NCCCCCCNC(=O)c3ccc(-c4c5ccc(=N)c(S(=O)(=O)O)c-5oc5c(S(=O)(=O)O)c(N)ccc45)c(C(=O)O)c3)Cc3ccccc3)CC2)cc1 [Compound 6]

Kd (DNMT2 [8]): 700 nM
SMILES: CCc1ccc(C(=O)NCC2(C(=O)N[C@H](CC(=O)NCC(=O)NCCCCCCNC(=O)c3ccc(-c4c5ccc(=[N+](C)C)cc-5oc5cc(N(C)C)ccc45)c(C(=O)O)c3)Cc3c[nH]c4ccccc34)CC2)cc1 [Compound 8]

Fnorm (% displ.): FTAD displacement (DNMT2 [2]): 13%
Fnorm (MST screening) (DNMT2 [2]): 879.4
SMILES: CCc1ccc(C(=O)NCC2(C(=O)NC(CC(=O)NCC(N)=O)Cc3ccc(C#N)cc3)CC2)cc1 (stereo not shown) [Compound 34]
m^5C reduction in tRNA ([3]; MOLM-13, 50 μM): no reduction of m^5C in tRNA
susceptibility to subsequent doxorubicin treatment (synergy) [5]: did not lead to a synergistic reduction in viability
